According to article PMC12155096 (International Journal of Molecular Sciences, 2025):
Counter-ions that a name gives are not always drawn. Like-named read-outs stand apart in the source and are kept apart here.

Tests used:
human CYP2D6 [1] = molecular target: T1, human CYP2D6 (Homo sapiens, UniProt P10635); settings: human
human CYP2C19 [2] = molecular target: T2, human CYP2C19 (Homo sapiens, UniProt P33261); assay: biochemical
human CYP2C9 [3] = molecular target: T3, human CYP2C9 (Homo sapiens, UniProt P11712); assay: biochemical
T3 sequence (P11712 whole entry): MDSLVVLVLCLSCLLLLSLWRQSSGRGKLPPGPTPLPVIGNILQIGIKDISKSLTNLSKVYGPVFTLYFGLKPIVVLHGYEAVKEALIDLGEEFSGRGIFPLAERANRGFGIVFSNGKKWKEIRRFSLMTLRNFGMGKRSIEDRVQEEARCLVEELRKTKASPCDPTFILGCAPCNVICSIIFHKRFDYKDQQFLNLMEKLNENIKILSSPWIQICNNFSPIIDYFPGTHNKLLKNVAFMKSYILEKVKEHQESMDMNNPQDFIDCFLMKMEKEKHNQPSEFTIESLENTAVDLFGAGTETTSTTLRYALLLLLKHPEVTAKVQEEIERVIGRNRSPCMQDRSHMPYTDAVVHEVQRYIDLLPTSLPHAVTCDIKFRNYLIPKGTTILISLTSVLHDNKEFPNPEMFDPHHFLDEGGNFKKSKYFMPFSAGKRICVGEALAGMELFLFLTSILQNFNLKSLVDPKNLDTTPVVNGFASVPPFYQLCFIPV

human CYP1A2 [4] = molecular target: T4, human CYP1A2 (Homo sapiens, UniProt P05177); assay: biochemical
T4 sequence (P05177 1-516): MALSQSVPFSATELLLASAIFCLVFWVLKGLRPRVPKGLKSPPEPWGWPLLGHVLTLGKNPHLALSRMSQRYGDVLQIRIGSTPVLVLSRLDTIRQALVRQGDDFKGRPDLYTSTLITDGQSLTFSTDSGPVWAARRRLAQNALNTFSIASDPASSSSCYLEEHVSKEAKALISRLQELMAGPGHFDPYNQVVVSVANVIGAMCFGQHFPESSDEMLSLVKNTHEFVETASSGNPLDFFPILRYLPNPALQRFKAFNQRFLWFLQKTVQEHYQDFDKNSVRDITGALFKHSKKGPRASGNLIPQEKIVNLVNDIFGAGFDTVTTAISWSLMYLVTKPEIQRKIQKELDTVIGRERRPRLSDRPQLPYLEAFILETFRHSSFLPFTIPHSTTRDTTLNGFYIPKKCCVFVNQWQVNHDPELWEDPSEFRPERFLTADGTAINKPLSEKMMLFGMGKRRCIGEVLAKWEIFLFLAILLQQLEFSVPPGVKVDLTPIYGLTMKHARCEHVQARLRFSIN

human CYP1A2 [5] = molecular target: T4, human CYP1A2
human CYP2D6 [6] = molecular target: T1, human CYP2D6; assay: biochemical
human CYP2C9 [7] = molecular target: T3, human CYP2C9
[8] = molecular target: Photinus pyralis (firefly) luciferase (Photinus pyralis, UniProt P08659); assay: biochemical; assay type: biochemical
Chain of Photinus pyralis (firefly) luciferase (P08659 whole entry): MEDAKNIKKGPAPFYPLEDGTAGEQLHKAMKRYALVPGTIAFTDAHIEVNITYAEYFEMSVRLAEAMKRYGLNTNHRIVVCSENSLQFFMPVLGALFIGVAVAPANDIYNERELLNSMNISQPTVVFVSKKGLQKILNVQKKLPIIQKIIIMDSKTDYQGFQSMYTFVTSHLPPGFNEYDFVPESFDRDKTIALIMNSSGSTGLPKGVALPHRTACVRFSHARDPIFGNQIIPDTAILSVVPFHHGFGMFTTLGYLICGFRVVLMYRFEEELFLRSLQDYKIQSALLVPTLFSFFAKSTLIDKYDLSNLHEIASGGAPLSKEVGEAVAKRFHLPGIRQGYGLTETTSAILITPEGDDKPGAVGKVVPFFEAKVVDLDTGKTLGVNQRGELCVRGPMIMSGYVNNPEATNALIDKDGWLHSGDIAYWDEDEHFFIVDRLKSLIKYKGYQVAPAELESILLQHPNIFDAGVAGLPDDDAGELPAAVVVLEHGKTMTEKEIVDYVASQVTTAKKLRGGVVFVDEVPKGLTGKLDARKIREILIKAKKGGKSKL

human CYP2C19 [9] = molecular target: T2, human CYP2C19
CYP3A4 = CYP3A4 (Homo sapiens, UniProt P08684)
Chain of CYP3A4 (P08684 whole entry): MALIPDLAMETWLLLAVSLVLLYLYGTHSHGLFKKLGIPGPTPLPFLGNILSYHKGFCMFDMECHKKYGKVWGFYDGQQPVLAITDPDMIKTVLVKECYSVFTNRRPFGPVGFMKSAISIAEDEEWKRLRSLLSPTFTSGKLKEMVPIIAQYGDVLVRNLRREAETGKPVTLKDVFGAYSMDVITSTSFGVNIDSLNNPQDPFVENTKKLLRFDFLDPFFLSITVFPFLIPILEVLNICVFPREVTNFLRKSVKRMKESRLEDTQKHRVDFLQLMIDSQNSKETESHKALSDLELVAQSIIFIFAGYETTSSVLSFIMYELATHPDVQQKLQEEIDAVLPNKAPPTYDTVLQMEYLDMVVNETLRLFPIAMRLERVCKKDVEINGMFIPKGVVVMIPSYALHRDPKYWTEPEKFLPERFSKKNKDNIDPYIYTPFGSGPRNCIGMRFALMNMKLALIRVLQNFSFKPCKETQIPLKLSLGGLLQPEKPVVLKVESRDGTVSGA

[10] = CYP2C19 IC50 (half-maximal inhibitory concentration)
[11] = CYP2C9 IC50 (half-maximal inhibitory concentration)
[12] = CYP1A2 IC50 (half-maximal inhibitory concentration)
[13] = CYP2D6 IC50 (half-maximal inhibitory concentration)

T1 sequence (P10635 whole entry): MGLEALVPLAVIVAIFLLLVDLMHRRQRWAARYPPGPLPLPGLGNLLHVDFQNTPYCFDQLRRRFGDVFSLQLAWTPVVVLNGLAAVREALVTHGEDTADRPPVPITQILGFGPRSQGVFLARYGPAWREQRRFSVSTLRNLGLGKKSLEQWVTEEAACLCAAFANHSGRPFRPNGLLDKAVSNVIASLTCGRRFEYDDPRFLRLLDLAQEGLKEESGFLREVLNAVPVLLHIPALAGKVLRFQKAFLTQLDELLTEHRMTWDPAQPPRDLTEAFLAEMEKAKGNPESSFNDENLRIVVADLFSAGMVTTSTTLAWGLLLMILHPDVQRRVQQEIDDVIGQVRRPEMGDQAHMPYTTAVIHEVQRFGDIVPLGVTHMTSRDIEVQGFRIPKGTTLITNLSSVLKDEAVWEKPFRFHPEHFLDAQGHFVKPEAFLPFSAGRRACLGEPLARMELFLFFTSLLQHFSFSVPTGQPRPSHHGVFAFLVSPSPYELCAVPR
T2 sequence (P33261 whole entry): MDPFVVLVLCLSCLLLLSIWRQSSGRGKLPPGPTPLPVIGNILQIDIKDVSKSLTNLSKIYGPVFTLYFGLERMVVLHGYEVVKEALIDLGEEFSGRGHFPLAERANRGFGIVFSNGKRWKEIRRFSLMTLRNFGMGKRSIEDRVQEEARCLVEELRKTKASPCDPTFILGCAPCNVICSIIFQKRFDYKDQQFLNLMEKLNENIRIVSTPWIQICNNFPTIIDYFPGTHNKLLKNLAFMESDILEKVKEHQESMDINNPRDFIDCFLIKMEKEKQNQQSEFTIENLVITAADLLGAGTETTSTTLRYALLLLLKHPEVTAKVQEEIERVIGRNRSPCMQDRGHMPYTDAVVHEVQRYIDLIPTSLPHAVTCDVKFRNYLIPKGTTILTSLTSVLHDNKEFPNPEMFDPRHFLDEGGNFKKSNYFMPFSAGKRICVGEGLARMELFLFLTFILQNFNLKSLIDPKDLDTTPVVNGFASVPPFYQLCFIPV

O=[N+]([O-])c1c2ccccc2cc2ccccc12 [9-Nitroanthracene]
CYP2D6 Efficacy (in parenthesis) (human CYP2D6 [1]): 34.03 ± 2.33 (-39 ± 13) %
IC50 (human CYP2C19 [2]; [10]): 19.9 µM
IC50 (human CYP2C9 [3]; [11]): 13.5 µM
IC50 (human CYP1A2 [4]; [12]): 0.27 µM
CYP1A2 Efficacy (in parenthesis) (human CYP1A2 [5]; human): 0.27 ± 0.04 (-96 ± 5) %
IC50 (human CYP2D6 [6]; [13]): 34 µM
CYP2C9 Efficacy (in parenthesis) (human CYP2C9 [7]; human): 13.51 ± 1.21 (-86 ± 11) %
IC50 [8]: 22.6 µM
CYP2C19 Efficacy (in parenthesis) (human CYP2C19 [9]; human): 19.86 ± 2.28 (-116 ± 4) %

CCc1cccc(N(C)C(N)=Nc2cccc3ccccc23)c1 [Aptiganel hydrochloride]
CYP3A4 IC50 (CYP3A4): Inactive
CYP1A2 IC50 (human CYP1A2 [5]): Inactive
IC50 (human CYP2D6 [6]; CYP2D6 IC50): 0.14 µM
Luciferase IC50 [8]: Inactive

C1CCC(NC2CCCCC2)CC1 [Dicyclohexylamine]
CYP3A4 IC50 (CYP3A4): Inactive
CYP1A2 IC50 (human CYP1A2 [5]): Inactive
IC50 (human CYP2D6 [6]): 0.28 µM
CYP2C9 IC50 (human CYP2C9 [7]): Inactive
Luciferase IC50 [8]: Inactive
CYP2C19 IC50 (human CYP2C19 [9]): Inactive

CN1[C@@H]2CC[C@H]1C[C@@H](NC(=O)n1c(=O)[nH]c3ccccc31)C2 [Itasetron]
CYP3A4 IC50 (half-maximal inhibitory concentration) (CYP3A4): Inactive
CYP1A2 IC50 (half-maximal inhibitory concentration) (human CYP1A2 [5]): Inactive
IC50 (human CYP2D6 [6]): 0.87 ± 0.1 µM
CYP2C9 IC50 (half-maximal inhibitory concentration) (human CYP2C9 [7]): Inactive
Luciferase IC50 (half-maximal inhibitory concentration) [8]: Inactive
CYP2C19 IC50 (half-maximal inhibitory concentration) (human CYP2C19 [9]): Inactive

COC(=O)C1=C(C)NC(C)=C(C(=O)OCCN2CCN(C(c3ccccc3)c3ccccc3)CC2)C1c1cccc([N+](=O)[O-])c1 (centres unmarked) [Manidipine]
CYP3A4 IC50 (half-maximal inhibitory concentration) (CYP3A4): Inactive
IC50 (human CYP2C19 [2]): 2.39 ± 2.01 µM
IC50 (human CYP2C9 [3]): 0.52 ± 0.3 µM
CYP1A2 IC50 (half-maximal inhibitory concentration) (human CYP1A2 [5]): Inactive
IC50 (human CYP2D6 [6]): 6.17 ± 5.32 µM
Luciferase IC50 (half-maximal inhibitory concentration) [8]: Inactive

c1ccc2c(c1)Sc1ccccc1N2CC1CN2CCC1CC2 (centres unmarked) [Mequitazine]
CYP3A4 IC50 (half-maximal inhibitory concentration) (CYP3A4): Inactive
CYP1A2 IC50 (half-maximal inhibitory concentration) (human CYP1A2 [5]): Inactive
IC50 (human CYP2D6 [6]; [13]): 0.29 µM
CYP2C9 IC50 (half-maximal inhibitory concentration) (human CYP2C9 [7]): Inactive
Luciferase IC50 (half-maximal inhibitory concentration) [8]: Inactive
CYP2C19 IC50 (half-maximal inhibitory concentration) (human CYP2C19 [9]): Inactive

CCN(CC)CCOC(=O)C(Cc1cccc2ccccc12)CC1CCCO1 (centres unmarked) [Nafronyl oxalate]
IC50 (human CYP2C19 [2]; CYP2C19 IC50): 7.76 µM
IC50 (human CYP1A2 [4]; CYP1A2 IC50): 18.2 µM
IC50 (human CYP2D6 [6]; CYP2D6 IC50): 2.98 µM
CYP2C9 IC50 (human CYP2C9 [7]): Inactive
Luciferase IC50 [8]: Inactive

CO[C@]12C[C@@H](COC(=O)c3cncc(Br)c3)CN(C)[C@@H]1Cc1cn(C)c3cccc2c13 [Nicergoline]
IC50 (human CYP2C19 [2]; CYP2C19 IC50): 11.8 µM
IC50 (human CYP1A2 [4]; CYP1A2 IC50): 22 µM
IC50 (human CYP2D6 [6]; CYP2D6 IC50): 0.07 µM
CYP2C9 IC50 (human CYP2C9 [7]): Inactive
Luciferase IC50 [8]: Inactive

c1cc2ccc3cccc4ccc(c1)c2c34 [Pyrene]
IC50 (human CYP2C19 [2]; CYP2C19 IC50): 24.3 µM
IC50 (human CYP2C9 [3]; CYP2C9 IC50): 60.5 µM
IC50 (human CYP1A2 [4]; CYP1A2 IC50): 0.64 µM
IC50 (human CYP2D6 [6]; CYP2D6 IC50): 47.1 µM
Luciferase IC50 [8]: Inactive

CCOC(=O)COc1ccc2c(c1)C[C@@H](NC[C@H](O)c1cccc(Cl)c1)CC2 [SR58611]
CYP3A4 IC50 (half-maximal inhibitory concentration) (CYP3A4): Inactive
IC50 (human CYP2C19 [2]): 35.2 ± 8.79 µM
IC50 (human CYP2C9 [3]): 31 ± 4.26 µM
CYP1A2 IC50 (half-maximal inhibitory concentration) (human CYP1A2 [5]): Inactive
IC50 (human CYP2D6 [6]): 0.66 ± 0.18 µM
Luciferase IC50 (half-maximal inhibitory concentration) [8]: Inactive

CCOC(=O)c1c(N)sc2c1CCN(Cc1ccccc1)C2 [Tinoridine]
IC50 (human CYP2C19 [2]): 0.71 ± 0.38 µM
IC50 (human CYP2C9 [3]): 6.91 ± 5.97 µM
IC50 (human CYP1A2 [4]): 16.1 ± 1.09 µM
IC50 (human CYP2D6 [6]): 0.02 ± 0.01 µM
Luciferase IC50 [8]: Inactive

Cl[C@H]1[C@H](Cl)[C@@H](Cl)[C@H](Cl)[C@@H](Cl)[C@H]1Cl [delta-Hexachlorocyclohexane]
AC50 (human CYP2C19 [2]; CYP2C19 AC50 (half-maximal activity concentration)): 2.27 µM
IC50 (human CYP2C19 [2]; [10]): 2.27 µM
AC50 (human CYP2C9 [3]; CYP2C9 AC50 (half-maximal activity concentration)): 25.6 µM
IC50 (human CYP2C9 [3]; [11]): 25.6 µM
AC50 (human CYP1A2 [4]; CYP1A2 AC50 (half-maximal activity concentration)): 35.7 µM
IC50 (human CYP1A2 [4]; [12]): 35.7 µM
AC50 (human CYP2D6 [6]; CYP2D6 AC50 (half-maximal activity concentration)): 48.8 µM
IC50 (human CYP2D6 [6]; [13]): 48.8 µM
Luciferase IC50 (half-maximal inhibitory concentration) [8]: Inactive

CN(C/C=C/C#CC(C)(C)C)Cc1cccc2ccccc12 [terbinafine, reference compound]
IC50 (human CYP2C19 [2]): 31.9 µM
IC50 (human CYP2C9 [3]): 15.5 µM
IC50 (human CYP1A2 [4]): 16.8 µM
IC50 (human CYP2D6 [6]): 0.4 µM
Luciferase IC50 [8]: Inactive
